Laboratory results from US20260184669A1, “LIPID COMPOUND AND COMPOSITION FOR DELIVERY OF ACTIVE SUBSTANCE” (KOREA RESEARCH INSTIUTE OF BIOSCIENCE AND BIOTECHNOLOGY, priority 2022, published 2026).

Key:
[1] = Apparent pKa of mRNA-LNP by TNS binding assay; assay type: physicochemical; details: apparent pKa of mRNA-LNP made with the ionizable lipid
Method: The apparent pKa of the mRNA-LNPs prepared according to Example 27 was determined by analysis using 6-(p-toluidino)-2-naphthalenesulfonic acid sodium salt (TNS; Sigma-Aldrich, USA).
However, as the pH decreases, the proportion of positively charged ionizable lipids increases, allowing electrostatic interactions with TNS. […] When the pH of the solution increases and the ionizable lipids become neutralized, TNS can no longer engage in electrostatic interactions. Consequently, TNS loses its lipophilic character, exits the hydrophobic domain, and its fluorescence is quenched. Based on this principle, the pKa of LNPs can be measured by plotting the change in TNS fluorescence intensity in response to variations in the surrounding pH as an S-shaped curve, and calculating the […] of the inflection point. […]
Specifically, a master buffer was prepared containing 10 mM sodium phosphate, 10 mM sodium borate, 10 mM sodium citrate, and 150 mM sodium chloride (NaCl). […] After gently mixing the contents of each well, the fluorescence intensity was measured using a multiplate reader (Cary Eclipse, Agilent Technologies, USA) at an excitation wavelength of λex 330 nm and an emission wavelength of λem 435 nm.

[2] = mRNA encapsulation efficiency (Quant-IT RiboGreen RNA assay); assay type: physicochemical; details: mRNA encapsulation efficiency of mRNA-LNP made with the ionizable lipid; average of two measurements
In short: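 LNP samples read with RiboGreen reagent in TE buffer with or without 2% Triton X-100 (37 °C, 10 min) to release encapsulated mRNA. Fluorescence at λex 480/λem 520 nm; EE % calculated from the two readings, averaged over two independent measurements.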

female C57BL/6 mice = assay: Protein expression efficiency of fLuc mRNA-LNPs after intramuscular injection (IVIS whole-body luminescence); assay type: in vivo; details: fLuc mRNA-LNP, intramuscular injection, luminescence at injection site, mice
In short: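 Female C57BL/6 mice (6-10 weeks, n≥4) got intramuscular fLuc mRNA-LNPs at 0.1-0.5 mg/kg mRNA. Injection-site luminescence was imaged under isoflurane at 1-72 h, 10 min after i.p. D-luciferin (200 μL, 15 mg/mL). Expression at 3 h was taken relative to MC3 or SM-102 LNPs.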

[3] = Stability of mRNA-LNPs according to storage temperature and duration; assay type: physicochemical; details: for Normalized EE % D-7 / PDI D-7 / Size (nm) D-7: day 7; for Normalized EE % D-30 / PDI D-30 / Size (nm) D-30: day 30
Method: Stability of fLuc mRNA-LNPs produced using various ionizable lipids according to the method of Example 27, was assessed by storing the LNPs at 4° C. and 25° C. At 1, 7, and 30 days post-manufacture, the size, PDI, and encapsulation efficiency (EE) of each mRNA-LNPs samples were measured using the methods described in Experimental Examples 2 and 3.

[4] = test system: CCL2 mRNA level in HEK-293T cells
[5] = test system: IL-1β mRNA level in HEK-293T cells
[6] = test system: IL-6 mRNA level in HEK-293T cells
[7] = fLuc mRNA-LNP stored at 4° C., day 1
[8] = fLuc mRNA-LNP stored at 25° C., day 1

For `CCCCC/C=C\C/C=C\CCCCCCCCC(CCCCCCCC/C=C\C/C=C\CCCCC)OC(=O)CCCN(C)C` [MC3, DLin-MC3-DMA, reference compound], the PKa [1] was 6.14, the “EE (%)” value [2] was 95% and the “Total flux 1 hour” value (female C57BL/6 mice; 1 hour after administration) was 1.20E+06. For the same molecule, the “Total flux 3 hours” value (female C57BL/6 mice; 3 hours after administration) was 1.24E+07, the “Total flux 6 hours” value (female C57BL/6 mice; 6 hours after administration) was 1.78E+07 and the “Total flux 48 hours” value (female C57BL/6 mice; 48 hours after administration) was 8.41E+05. The “Total flux 72 hours” value (female C57BL/6 mice; 72 hours after administration) was 3.89E+05, the Total flux (female C57BL/6 mice; after administration) was 1.03E+06 and the “Normalized EE % D-1” value [3, 7] was 95.0%. For the same molecule, the “Size (nm) D-1” value [3, 7] was 92.8 nm, the “Normalized EE % D-7” value ([3]; fLuc mRNA-LNP stored at 4° C.) was 94.0% and the “PDI D-7” value ([3]; fLuc mRNA-LNP stored at 4° C.) was 0.060. For the same molecule, the “Size (nm) D-7” value ([3]; fLuc mRNA-LNP stored at 4° C.) was 128.7 nm, the “Normalized EE % D-30” value ([3]; fLuc mRNA-LNP stored at 4° C.) was 90.4% and the “PDI D-30” value ([3]; fLuc mRNA-LNP stored at 4° C.) was 0.142. The “Size (nm) D-30” value ([3]; fLuc mRNA-LNP stored at 4° C.) was 125.6 nm, the “Normalized EE % D-1” value [3, 8] was 95.0% and the “PDI D-1” value [3, 8] was 0.174. For the same molecule, the “Size (nm) D-1” value [3, 8] was 92.8 nm, the “Normalized EE % D-7” value ([3]; fLuc mRNA-LNP stored at 25° C.) was 90.8% and the “PDI D-7” value ([3]; fLuc mRNA-LNP stored at 25° C.) was 0.110. For the same molecule, the “Size (nm) D-7” value ([3]; fLuc mRNA-LNP stored at 25° C.) was 123.0 nm, the “Normalized EE % D-30” value ([3]; fLuc mRNA-LNP stored at 25° C.) was 88.3% and the “PDI D-30” value ([3]; fLuc mRNA-LNP stored at 25° C.) was 0.123. For the same molecule, the “Size (nm) D-30” value ([3]; fLuc mRNA-LNP stored at 25° C.) was 119.3 nm, the “CCL2 Average” value [4] was 1.15 and the “IL-1β Average” value [5] was 1.46. The “IL-6 Average” value [6] was 1.27.
